# Test results from patent US20120277211A1, “METHODS AND COMPOSITIONS FOR THE TREATMENT OF PSYCHOTIC DISORDERS THROUGH THE IDENTIFICATION OF THE SULT4A1-1 HAPLOTYPE” (priority 2009, published 2012).
# Where two headings read alike, the source gives them in different places. Marks after values point to notes of the source that are not given here.
# What was measured:
# [1] = tested on: African American schizophrenia patients; experiment: CATIE: change in total PANSS (LOCF) by SULT4A1-1 haplotype status, African Americans; format: in vivo, human; conditions: for Number of individuals with change in total PANSS ≦−20% (responders) / Number of individuals with change in total PANSS ≧−20% (non-responders): LOCF
# Description: The design of the CATIE study has been described in detail by others (Lieberman et al., 2005; Stroup et al., 2003). […] A total of 738 subjects consented to provide DNA for genetic study. […] Retrospective genetic analyses, judged to be exempt from human studies requirements by an IRB, were conducted in the current study. All tested patients were studied using well established clinical endpoints comparing baseline, intermediate, and last observation carried forward (LOCF) for the PANSS scores using CATIE data. […] To remove time on drug as a variable for the CATIE trial, analysis was limited to only those patients who were randomized to a different drug following the initial washout period (drug switchers).
# [2] = tested on: Caucasian schizophrenia patients; experiment: CATIE: time to discontinuation for all causes by SULT4A1-1 status; format: in vivo, human; conditions: SULT4A1-1 negative
# From the text: The primary endpoint for the CATIE study was time to discontinuation for all causes (Lieberman et al., 2005). Thus the inventors evaluated the effect of SULT41-1 status on this important parameter.
# schizophrenia patients [3] = experiment: CATIE: months of successful treatment measured by the CGI scale (TMSUCC1); format: in vivo, human
# From the text: The CATIE clinical data set included Clinical Global Impression (CGI) Scale, an observer-provided assessment of the psychiatric health of the patient (Stroup et al., 2003; Guy 1976). Patients are rated with the CGI Scale from 1 to 7, with higher scores indicating greater severity of illness. The CATIE study provided a response variable that measured the time (in months) of successful treatment as measured by the CGI scale (“TMSUCC1” in the CATIE data).
# [4] = tested on: Caucasian schizophrenia patients; experiment: CATIE: hospitalization due to exacerbation of psychosis by SULT4A1-1 status; format: in vivo, human
# From the text: To assess if SULT4A1-1 status impacts the risk of hospitalization in Caucasians, the inventors assigned SULT4A1-1 status to each CATIE subject and evaluated hospitalization events due to exacerbation of psychosis. For this analysis, the inventors assigned a dichotomous value (positive or negative) for hospitalization status to subjects in each phase of the trial based on only the first hospitalization event for a given patient in that phase. Patients participating in Phases 1, 2, and/or 3 were included in the totals for the appropriate drug.
# A Kaplan-Meier survival analysis was performed to determine whether there was a difference between the survival (hospitalization) rates for the SULT4A1-1 negative and SULT4A1-1 positive patient populations treated with each of the atypical antipsychotics. Survival plots model the fraction of the population that survived (i.e., no hospitalization event) as a function of time.
# schizophrenia patients [5] = conditions: Phase II; for Responders: decrease PANSS ≧20%, LOCF
# schizophrenia patients [6] = conditions: published CATIE results (Lieberman et al. 2005); cited from earlier work
smiles,measurement,setting,value
Cc1cc2c(s1)Nc1ccccc1N=C2N1CCN(C)CC1 [Olanzapine],Responders,[1]; SULT4A1-1 negative,33.3%
same,Number of individuals with change in total PANSS ≦−20% (responders),[1]; SULT4A1-1 negative,15
same,Number of individuals with change in total PANSS ≧−20% (non-responders),[1]; SULT4A1-1 negative,30
same,Responders,[1]; SULT4A1-1 positive,25%
same,Number of individuals with change in total PANSS ≦−20% (responders),[1]; SULT4A1-1 positive,1
same,Number of individuals with change in total PANSS ≧−20% (non-responders),[1]; SULT4A1-1 positive,3
same,"Time to discontinuation, mean",[2],10.0** Months
same,"Length of successful treatment (CGI Months), Mean",schizophrenia patients [3]; SULT4A1-1 negative,5.44 Months
same,"Length of successful treatment (CGI Months), Mean",schizophrenia patients [3]; SULT4A1-1 positive,8.33^d Months
same,"Length of successful treatment (CGI Months), Mean",schizophrenia patients [3]; Unsegmented,6.10 Months
same,"HOSP, number of patients hospitalized",[4]; SULT4A1-1 negative,22
same,"HOSP, number of patients hospitalized",[4]; SULT4A1-1 positive,1
same,"HOSP, rate of hospitalization",[4]; SULT4A1-1 positive,2.6%
same,"HOSP, rate of hospitalization",[4]; Unsegmented,14.2%
same,"HOSP, number of patients hospitalized","[4]; Unsegmented, Phases 1, 2 and/or 3, first event",23
same,Nonresponders,schizophrenia patients [5]; SULT4A1-1 Negative,14
same,Responders,schizophrenia patients [5]; SULT4A1-1 Negative,3
same,% Responders,schizophrenia patients [5]; SULT4A1-1 Positive,42.9%
same,Nonresponders,schizophrenia patients [5]; SULT4A1-1 Positive,4
same,Responders,schizophrenia patients [5]; SULT4A1-1 Positive,3
same,Incidence of clinically significant weight gain compared to other drugs,schizophrenia patients [6],higher incidence of clinically significant weight gain
